Experimental data published in patent US8759318B2, “Phosphoramidate derivatives of guanosine nucleoside compounds for treatment of viral infections” (Inhibitex, Inc., priority 2009, dated 2014).

What was measured:
[1] = test system: HCV replicon (Genotype 1b); test: Luciferase genotype 1b replicon potency assay; details: Hepatitis C virus, GETYPE1B, read-out: IC50 μM, HCV genotype 1b luciferase replicon, Renilla luciferase reporter
[2] = mouse, in vivo, po, 50 mg/kg
[3] = Mouse PK: 2'-C-methylguanosine triphosphate levels in liver; details: 2'-C-methylguanosine triphosphate in mouse liver, 50 mg/kg PO
Huh7 replicon cells = test: Cytotoxicity assay (CellTiter-Glo); details: read-out: CC50 μM; 72 h, CellTiter-Glo
[4] = Protide stability in normal plasma, rat; format: in vitro ADME; details: 37° C.
Experimental: (§1) Selected nucleoside 5′-phosphoramidates were examined for stability in human, cynomolgous monkey, rat and mouse plasma at 37° C. at both 30 min and 90 min time points.
(§2) Protide Stability in Normal Plasma: Plasma samples were prepared for analysis as follows. 50 μl of each test sample were distributed a 96-well V-bottom plate. 200 μl of acetonitrile containing 10 ng/ml of an internal standard was added to each plasma sample. The precipitated samples were centrifuged at 2500 rpm, 4° C. for 20 minutes in a Sorvall RT6000S centrifuge (Thermo Scientific, Waltham Mass.) and 100 μl of supernatant from each sample was transferred into a 96 deep well plate followed by the addition of 100 μl H2O to each sample. Samples were covered, mixed well by vortexing and maintained at 2-8° C. before and during analysis. 15 μl of each test sample was analyzed for protide concentrations by liquid chromatography coupled to tandem mass spectrometry (LC-MS/MS). Liquid chromatography was performed with an Agilent 1100 Series HPLC system equipped with a Synergi 4 μm Polar-RP, 30×2.0 mm column (Phenomenex, Torrance, Calif.). The HPLC system was coupled to an API 4000 triple quadrupole mass spectrometer (Applied Biosystems, Framingham, Mass.). Mass spectrometry was performed in positive ion mode and data was analyzed using Analyst® v1.4.2 software (Applied Biosystems, Framingham, Mass.). Data was presented as the percentage of compound recovered as compared to the 0 time point control.

in vitro = details: human
[5] = Protide stability in normal plasma, cynomolgous monkey; format: in vitro ADME; details: 37° C.
Experimental: as §1, §2

[6] = Protide stability in normal plasma, human; format: in vitro ADME; details: 37° C.
Experimental: as §1, §2

[7] = Protide stability in normal plasma, mouse; format: in vitro ADME; details: 37° C.
Experimental: as §1, §2

[8] = Cytotoxicity assay (CellTiter-Glo); details: human, Huh7 HCV replicon cells (genotype 1b)

Compound	IC50 [1]	CC50 at 72 h [8]	also measured
COc1nc(N)nc2c1ncn2[C@@H]1O[C@H](CO)[C@@H](O)[C@@]1(C)O [Example 2, (2R,3R,4R,5R)-2-(2-amino-6-methoxy-9H-purin-9-yl)-5-(hydroxymethyl)-3-methyltetrahydrofuran-3,4-diol]	3.1 µM		Multiple Above IC90 at Cmax [2]: 25.1; AUC0-6 [3]: 8748 ng·h/g; AUC0-24 [3]: 30618 ng·h/g; CC50 (Huh7 replicon cells): > 100 µM
COc1nc(N)nc2c1ncn2C1O[C@H](COP(=O)(N[C@H](C(=O)OCC(C)(C)C)C(C)C)Oc2cccc3ccccc23)[C@@H](O)[C@@]1(C)O (stereo partly drawn) [Example 42, (2S)-neopentyl 2-((((2R,3R,4R)-5-(2-amino-6-methoxy-9H-purin-9-yl)-3,4-dihydroxy-4-methyltetrahydrofuran-2-yl)methoxy)(naphthalen-1-yloxy)phosphorylamino)-3-methylbutanoate]	0.21 µM		% Compound Remaining Compared to %100 Acetonitrile Control ([4]; 30 min): 50.0%; % Compound Remaining Compared to %100 Acetonitrile Control ([4]; 1.5 h): 37.0%; CC50 (in vitro): 30 µM; % Compound Remaining Compared to %100 Acetonitrile Control ([5]; 30 min): 87.0%; % Compound Remaining Compared to %100 Acetonitrile Control ([5]; 1.5 h): 82.5%; % Compound Remaining Compared to %100 Acetonitrile Control ([6]; 30 min): 88.5%; % Compound Remaining Compared to %100 Acetonitrile Control ([6]; 1.5 h): 82.5%; AUC0-6 [3]: 1540 ng·h/g; % Compound Remaining Compared to %100 Acetonitrile Control ([7]; 30 min): 66.5%; % Compound Remaining Compared to %100 Acetonitrile Control ([7]; 1.5 h): 45.5%
CCOc1nc(N)nc2c1ncn2C1O[C@H](CO)[C@@H](O)[C@@]1(C)O (stereo partly drawn) [Example 72, (3R,4R,5R)-2-(2-amino-6-ethoxy-9H-purin-9-yl)-5-(hydroxymethyl)-3-methyltetrahydrofuran-3,4-diol]	11 µM	> 100 µM	
CNc1nc(N)nc2c1ncn2C1O[C@H](CO)[C@@H](O)[C@@]1(C)O (stereo partly drawn) [Example 80, (3R,4R,5R)-2-(2-amino-6-(methylamino)-9H-purin-9-yl)-5-(hydroxymethyl)-3-methyltetrahydrofuran-3,4-diol]	13 µM	> 100 µM	
C[C@@]1(O)[C@H](O)[C@@H](CO)O[C@H]1n1cnc2c(NCc3ccccc3)nc(N)nc21 [Example 84, (3R,4R,5R)-2-(2-amino-6-(benzylamino)-9H-purin-9-yl)-5-(hydroxymethyl)-3-methyltetrahydrofuran-3,4-diol]	27 µM	> 100 µM	
CSc1nc(N)nc2c1ncn2[C@@H]1O[C@H](CO)[C@@H](O)[C@@]1(C)O [Example 88, (2R,3R,4R,5R)-2-(2-amino-6-(methylthio)-9H-purin-9-yl)-5-(hydroxymethyl)-3-methyltetrahydrofuran-3,4-diol]	11 µM	150 µM	
COc1nc(NCc2ccc(F)cc2)nc2c1ncn2[C@@H]1O[C@H](CO)[C@@H](O)[C@@]1(C)O [Example 92, (2R,3R,4R,5R)-2-(2-(4-fluorobenzylamino)-6-methoxy-9H-purin-9-yl)-5-(hydroxymethyl)-3-methyltetrahydrofuran-3,4-diol]	> 40 µM	> 100 µM	
COc1nc(N)nc2c1ncn2C1O[C@H](CO)C[C@@]1(C)O (stereo partly drawn) [Example 94, (3R,5S)-2-(2-amino-6-methoxy-9H-purin-9-yl)-5-(hydroxymethyl)-3-methyl-tetrahydrofuran-3-ol]	> 100 µM	> 100 µM	
